According to patent US20030109418A1, “Methods for identifying compounds for inhibition of neoplastic lesions, and pharmaceutical compositions containing such compounds” (priority 1999, published 2003):
Structures can show the parent of a compound that is named as a salt.

Experiments:
[1] = target: T1, purified cyclooxygenase (Type 1, COX-I) from ram seminal vesicles (Ovis aries, UniProt P05979); experiment: COX inhibition assay, purified cyclooxygenase; assay type: biochemical; details: for inhibition at 100 µM: read-out: Cyclooxygenase inhibitory activity, % Inhibition at 100 μM
T1 construct: using purified cyclooxygenase from ram seminal vesicles as described previously; tissue Cayman Chemical, Ann Arbor, Mich; (named in the general protocol only); host or cells: ram seminal vesicles
T1 sequence (P05979 25-600): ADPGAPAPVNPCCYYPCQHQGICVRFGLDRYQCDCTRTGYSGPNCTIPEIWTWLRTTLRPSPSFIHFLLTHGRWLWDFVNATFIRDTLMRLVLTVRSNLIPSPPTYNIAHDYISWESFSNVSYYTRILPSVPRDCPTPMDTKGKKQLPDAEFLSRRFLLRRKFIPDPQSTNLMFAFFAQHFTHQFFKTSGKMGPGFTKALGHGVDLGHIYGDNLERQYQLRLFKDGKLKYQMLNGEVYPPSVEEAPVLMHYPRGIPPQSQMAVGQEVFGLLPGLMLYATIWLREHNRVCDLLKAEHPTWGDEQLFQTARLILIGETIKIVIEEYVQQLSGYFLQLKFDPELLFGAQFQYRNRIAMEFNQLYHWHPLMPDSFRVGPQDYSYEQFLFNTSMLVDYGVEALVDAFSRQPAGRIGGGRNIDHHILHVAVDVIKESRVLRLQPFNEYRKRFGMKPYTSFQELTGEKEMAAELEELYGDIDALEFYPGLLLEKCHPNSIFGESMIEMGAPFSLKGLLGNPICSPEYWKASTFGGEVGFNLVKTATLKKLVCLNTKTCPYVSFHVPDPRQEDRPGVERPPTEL

[2] = tested on: cGMP PDE purified from human colon HT-29 cultured tumor cells; experiment: cGMP PDE inhibition assay; assay type: biochemical; details: for IC50: read-out: IC50 for inhibition of cGMP PDE, HT-29 cell enzyme
UACC375, Melanoma = experiment: Growth inhibition, SRB assay, UACC375; assay type: cell-based; details: Homo sapiens, UACC-375
Source text: A compound's ability to inhibit tumor cell growth can be measured using the HT-29 human colon carcinoma cell line obtained from ATCC. HT-29 cells have previously been characterized as a relevant colon tumor cell culture model (Fogh, J., and Trempe, G. In: Human Tumor Cells in Vitro, J. Fogh (eds.), Plenum Press, New York, pp. 115-159, 1975). HT-29 cells are maintained in RPMI media supplemented with 5% fetal bovine calf serum (Gemini Bioproducts, Inc., Carlsbad, Calif.) and 2 mm glutamine, and 1% antibiotic-antimycotic in a humidified atmosphere of 95% air and 5% CO2 at 37° C. Briefly, HT-29 cells are plated at a density of 500 cells/well in 96 well microtiter plates and incubated for 24 hours at 37° C. prior to the addition of compound. […] After six days in culture, the cells are fixed by the addition of cold trichloroacetic acid to a final concentration of 10% and protein levels are measured using the sulforhodamine B (SRB) colorimetric protein stain assay as previously described by Skehan, P., Storeng, R., Scudiero, D., Monks, A., McMahon, J., Vistica, D., Warren, J. T., Bokesch, H., Kenney, S., and Boyd, M. R., “New Colorimetric Assay For Anticancer-Drug Screening,” J. Natl. Cancer Inst. […]
To show the effectiveness of this screening method on various forms of neoplasia, compounds were tested on numerous cell lines. […] The IC50 values were determined by the SRB assay. […]

[3] = tested on: SW-480 colon adenocarcinoma cells; experiment: Apoptosis fold induction protocol (DNA fragmentation ELISA); details: Homo sapiens
HCT-15 = experiment: Growth inhibition, neutral red assay, HCT-15; assay type: cell-based, human; details: free base, five days
Experimental: (§1) Compound I's activity is not confined to activity against colon cancer cell lines or animal models of colon cancer. It has a broad range of anti-neoplastic effects in various neoplastic cell lines. Various types of human cancer cell lines were propagated under sterile conditions in RPMI 1640 medium with 10% fetal bovine serum, 2 mM L-glutamine and sodium bicarbonate. To determine growth inhibitory effects of Compound I, cells were seeded in 96-well plates at a density of 1000 cells per well. Twenty-four hours after plating, the cells were dosed with various concentrations of the free base of Compound I solubilized in DMSO (final concentration 0.1%). The effect of the drug on tumor cell growth was determined using the neutral red cytotoxicity assay following five days of continuous treatment. Neutral red is a dye that is selectively taken up by viable cells by an ATP-dependent transport mechanism.

PC-3 = experiment: Growth inhibition, neutral red assay, PC-3; assay type: cell-based, human; details: free base, five days
Experimental: as §1

28-day study in rats = assay type: in vivo, rat
Colo 205 = experiment: Growth inhibition, neutral red assay, Colo 205; assay type: cell-based, human; details: free base, five days
Experimental: as §1

NCI-H23 = experiment: Growth inhibition, neutral red assay, NCI-H23; assay type: cell-based, human; details: free base, five days
Experimental: as §1

NCI-H82 = experiment: Growth inhibition, neutral red assay, NCI-H82; assay type: cell-based, human; details: free base, five days
Experimental: as §1

MDA-MB-231 = experiment: Growth inhibition, neutral red assay, MDA-MB-231; assay type: cell-based, human; details: free base, five days
Experimental: as §1

CC1=C(CC(=O)O)c2cc(F)ccc2/C1=C\c1ccc(S(C)(=O)=O)cc1 [Exisulind, 5-fluoro-2-methyl-1-(p-methylsulfonylbenzylidene)-3-indenylacetic acid]
COX Inhibition ([1]; qualitative activity profile): −
inhibition at 100 µM [1]: < 25%
cGMP PDE inhibitory activity, % Inhibition at 10 μM ([2]; 10 μM): 39%
PDE Inhibition ([2]; qualitative activity profile): ++
IC50 [2]: 56000 nM
IC50 (UACC375, Melanoma): 100 µM
fold induction at 100 µM ([3]; SW480, read-out: Apoptosis-inducing activity, Fold induction at 100 μM, 100 μM, cell line not given): < 2

CC1=C(CC(=O)NCc2ccccc2)c2cc(F)ccc2/C1=C\c1ccncc1 [Compound I, (Z)-5-fluoro-2-methyl-(4-pyridylidene)-3-(N-benzyl)indenylacetamide hydrochloride]
inhibition at 100 µM [1]: < 25%
GI50 (HCT-15; Homo sapiens, HCT-15, 120 h): 1.7 µM
GI90 μM, HCT-15 (HCT-15): 3.0 µM
IC50 [2]: 680 nM
GI50 (PC-3; Homo sapiens, PC-3, 120 h): 1.7 µM
GI90 μM, PC-3 (PC-3): 82.5 µM
organ weight data, 28-day study (28-day study in rats; rats, 2000 mg/kg/day): statistically significant increase in liver weights
clinical observations, 28-day study (28-day study in rats; rats, 50, 500 and 2000 mg/kg/day): no abnormal clinical observations
GI50 (Colo 205; Homo sapiens, COLO 205, 120 h): 1.6 µM
GI90 μM, Colo 205 (Colo 205): 2.4 µM
EC50 ([3]; SW480, read-out: DNA fragmentation EC50): 15000 nM
GI50 (NCI-H23; Homo sapiens, NCI-H23, 120 h): 1.7 µM
GI90 μM, NCI-H23 (NCI-H23): 2.5 µM
GI50 (NCI-H82; Homo sapiens, NCI-H82, 120 h): 1.7 µM
GI90 μM, NCI-H82 (NCI-H82): 5.8 µM
GI50 (MDA-MB-231; Homo sapiens, MDA-MB-231, 120 h): 1.8 µM
GI90 μM, MDA-MB-231 (MDA-MB-231): 77.6 µM
